Results taken from ChEMBL document CHEMBL1201862, “PubChem BioAssay data set” (2004).
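Assay format: 96-well plates, 48-hour exposure. GI50 marks 50% less growth.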 Calls of active or inactive are those of the source. No stated cut-off is given here; in the data, active = GI50 up to about 1.1 µM and inactive = higher.

Columns and labels:
Test in all cases: NCI-60 cell line screen, 48 h
786-0 = test system: 786-0
A498 = test system: A498
DU-145 = test system: DU-145
HCC 2998 = test system: HCC 2998
HOP-62 = test system: HOP-62
IGROV-1 = test system: IGROV-1
KM12 = test system: KM12
LOX IMVI = test system: LOX IMVI
MDA-MB-231 = test system: MDA-MB-231
MDA-MB-435 = test system: MDA-MB-435
MOLT-4 = test system: MOLT-4
Malme-3M = test system: Malme-3M
NCI/ADR-RES = test system: NCI/ADR-RES
RPMI-8226 = test system: RPMI-8226
SF-268 = test system: SF-268
SF-539 = test system: SF-539
SK-MEL-5 = test system: SK-MEL-5
SW-620 = test system: SW-620
UACC-257 = test system: UACC-257
UO-31 = test system: UO-31

Measured: GI50

CCOC(=O)C1CCCN1C(=O)c1ccccc1Cl (stereo not given)
inactive: 786-0 > 100 µM | A498 > 100 µM | DU-145 > 100 µM | HCC 2998 > 100 µM | HOP-62 > 100 µM | IGROV-1 > 100 µM | KM12 > 100 µM | LOX IMVI > 100 µM | MDA-MB-231 > 100 µM | MDA-MB-435 > 100 µM | MOLT-4 > 100 µM | Malme-3M > 100 µM | NCI/ADR-RES > 100 µM | RPMI-8226 > 100 µM | SF-268 > 100 µM | SF-539 > 100 µM | SK-MEL-5 > 100 µM | SW-620 > 100 µM | UACC-257 > 100 µM | UO-31 > 100 µM

CCOC(=O)NC(NNc1ccc([N+](=O)[O-])cc1[N+](=O)[O-])(C(F)(F)F)C(F)(F)F
inactive: 786-0 43.9 µM | A498 19.7 µM | DU-145 40.3 µM | HCC 2998 23.3 µM | HOP-62 32.9 µM | IGROV-1 54.8 µM | KM12 29.4 µM | LOX IMVI 60.1 µM | MDA-MB-231 15.8 µM | MDA-MB-435 42.6 µM | MOLT-4 28.1 µM | Malme-3M 53.3 µM | NCI/ADR-RES 33.3 µM | RPMI-8226 17.9 µM | SF-268 43.4 µM | SF-539 22.5 µM | SK-MEL-5 60.8 µM | SW-620 40.3 µM | UACC-257 43.1 µM | UO-31 21.9 µM
